From patent US10781212B2, “2,6-diamino pyridine compounds” (Eli Lilly and Company, priority 2018, dated 2020) come the findings set out here.

In data set [1] the target is human KHK-C (Homo sapiens (Human), UniProt P50053). Put plainly: KHK enzyme activity assay, human KHK-C. The data set is classed as biochemical. The following applies: fructose 250 μM, ATP 150 μM; read-out: hKHK-C IC50. As for the experimental part: (§1) KHK Enzyme Activity Assay for Human KHK-C and Human KHK-A
(§2) Enzyme is prepared in assay buffer [50 mM 4-(2-hydroxyethyl)piperazine-1-ethanesulfonic acid (HEPES), 10 mM potassium chloride, 100 mM magnesium chloride, 2 mM tris(2-carboxyethyl)phosphine (TCEP), 0.01% n-octyl glucoside] and incubated with compounds at RT for 15 min. The reaction is carried out in 100 μL volumes containing substrate concentrations of fructose (250 μM for KHK-C assay and 1.25 mM for KHK-A assay) and ATP (150 μM for both isoforms); which are further incubated at RT for 20 min. The reaction is then halted by the addition of stop buffer; consisting of 0.2% formic acid and 1 μg/ml ^13C6-fructose-6-phosphate (^13C6-F6P) internal standard. […] RapidFire MS Analysis for Quantitation of F1P: […]
(§3) Solvent A, used for sample loading and washing, is 6 mM octylamine (Acros Organics 129495000) brought to pH 5.0 using acetic acid. […] Samples are sequentially analyzed by aspirating 10 μL onto the collection loop under vacuum directly from multiwell plates. […]
(§4) The triple quadrupole mass spectrometer is equipped with an ESI source and analytes are monitored using selected reaction monitoring (SRM) in negative mode [M−H]−. F1P is monitored at m/z 259.02/96.9 and ^13C6-fructose-6-phosphate is monitored at m/z 264.99/97. The area ratio values for F1P is calculated using ^13C6-fructose-6-phosphate as internal standard.

In data set [2] the target is human KHK-A (Homo sapiens (Human), UniProt P50053). Put plainly: KHK enzyme activity assay, human KHK-A. The data set is classed as biochemical. The following applies: fructose 1.25 mM, ATP 150 μM; read-out: hKHK-A IC50. As for the experimental part: as §1, §2, §3, §4
A short description of data set [3]: Pharmacokinetics in FVB wild type mice. It is filed as in vivo. The following applies: mouse, IV 1 mg/kg. The procedure: (§5) Liquid Chromatograph with Tandem Mass Spectrometry (LC-MS/MS) Method for Pharmacokinetic Assays: Samples are extracted using a protein precipitation by adding 180 μL of MeOH:ACN (1:1, v/v) containing an internal standard and 25 μL (rodent samples) or 50 μL(non-rodent samples) of plasma. Samples are then diluted with Methanol:Water (1:1, v/v) to get concentrations within standard curve range. Diluted samples are analyzed by LC-MS/MS using a Sciex API 4000 triple quadrupole mass spectrometer (Applied Biosystems/MDS; Foster City, Calif.) equipped with a TurbolonSpray interface, and operated in positive ion mode. The analytes are chromatographically separated using a Thermo Betasil C18 5 um 20×2.1 mm Javelin column (rodent samples) or Advantage ECHIELON C18 4 um 20 mm×2.1 mm ID column (non-rodent samples). LC conditions are Water/1 M ammonium bicarbonate, (2000:10, v/v) (Mobile Phase A), and MeOH/1 M ammonium bicarbonate, (2000:10, v/v) (Mobile Phase B).
(§6) Example 1 is administered by a single intravenous (IV; 1 mg/kg; volume of 1 mL/kg) dose in vehicle. Blood is collected from each animal at 0, 0.08, 0.25, 0.5, 1, 2, 4, 8, 12, and 24 h post-dosage. Liver, spleen, and pancreas is collected, weighed and perfused at 24 h post-dosage. The plasma and tissue concentrations of Example 1 are determined by a LC-MS/MS method as described above.

Data set [4] is described as follows: Pharmacokinetics in OATP1A/1B knockout mice. The following applies: OATP1A/1B knockout (Taconic #10707), mouse, IV 1 mg/kg. The data set is classed as in vivo. The procedure:
as §5, §6

The nature of data set [5]: Pharmacokinetics in Beagle dogs. The data set is classed as in vivo. As for the experimental part:
as §5
Example 1 is administered by a single oral (PO; 3 mg/kg; volume of 2 mL/kg) or intravenous (IV; 1 mg/kg; volume of 1 mL/kg) dose in vehicle. Blood is collected from each animal at 0, 0.03 (IV group only), 0.08 (IV), 0.25, 0.5, 1, 2, 4, 8, 12, 24, 32 (IV), 48 (IV), and 72 (IV) h post-dosage. The plasma concentrations of Example 1 are determined by a LC-MS/MS method as described above.

Data set [6] is described as follows: Elimination pathways in bile duct cannulated Beagle dogs. It is filed as in vivo. The following applies: IV 1 mg/kg. As for the experimental part: as §5
Example 1 is administered by a single intravenous (IV; 1 mg/kg; volume of 1 mL/kg) dose in vehicle. Blood is collected from each animal at 0, 0.033, 0.083, 0.25, 0.5, 1, 2, 4, 8, 12, 24, 32, 48 and 72 h post-dosage. Bile is collected from each animal at 1, 2, 3, 4, 5, 6, 12, 18, 24, 32, 48 and 72 h post-dosage. Urine is collected at 12, 24, 48, and 72 h and feces collected at 24, 48, and 72 h post-dosage. The plasma, bile, urine and feces concentrations of Example 1 are determined by a LC-MS/MS method as described above.

Data set [7] in a line: Pharmacokinetics in cynomolgus monkeys. It is filed as in vivo. The following applies: cynomolgus monkey, plasma, PO 10 mg/kg. As for the experimental part:
as §5
The compounds is administered by a single oral (PO; 10 mg/kg; volume of 5 mL/kg) dose in vehicle. Blood is collected from each animal at 0, 0.25, 0.5, 1, 2, 4, 8, 12, 24, 32, 48, and 72 h post-dosage. The plasma concentrations of Example 1 are determined by a LC-MS/MS method as described above.

In data set [8] the test system is human hepatocytes. Nature of the data set: Intrinsic clearance in human hepatocytes (-/+ABT). The data set is classed as in vitro ADME. The following applies: with vs without ABT (pan-CYP450 inhibitor). As for the experimental part:
Intrinsic Clearance in Human Hepatocytes (−/+ABT)
This method is intended to identify in vitro metabolic clearance by substrate depletion in hepatocytes. Incubation in the presence and absence of ABT, a pan-CYP450 enzyme inhibitor, is used to estimate the contribution of CYP-mediated metabolism. Cryopreserved human hepatocytes are thawed at 37° C., spun down and reconstituted in hepatocyte maintenance media to a density of 1×10^6 viable cells/mL. To a pre-warmed 96-well plate, 196 μL of the hepatocyte suspension is added to each well. The cells are pre-incubated with and without ABT as follows: for ABT pre-incubation, 2 μL of 100 mM ABT solution is added (2 μL of media without ABT is added to control samples), and the plate incubated at 37° C. for 30 min under constant shaking (˜600 rpm). Following, 2 μL of a 30 μM stock solution of test article is added and at 0, 15, 30, 60, 120, 240 min 20 μL aliquots are taken and quenched by transfer to ACN containing internal standard. Following centrifugation at 4000 rpm for 30 min, supernatant concentrations are determined by LC-MS/MS. Clearance is calculated from the slope of % compound remaining over time.

Data set [9] concerns the target OATP1B1 (Homo sapiens (Human), UniProt Q9Y6L6). Nature of the data set: Inhibition of OATP1B1 (rosuvastatin uptake). It is filed as cell-based. The following applies: rosuvastatin 400 nM substrate, 30 min pre-incubation. As for the experimental part: (§7) Inhibition of OATP1B1 and OATP1B3
(§8) The OATP1B1, OATP1B3, and vector control (VC) cells are grown in 5% CO2 at 37° C. in a humidified atmosphere in DMEM supplemented with 10% FBS, 50 μg/mL gentamycin, and 5 μg/mL blasticidin. The cells are seeded in 24-well BioCoat Poly-D-Lysine plates. The cells are treated with 5 mM sodium butyrate in supplemented DMEM 24 h prior to experimentation. Cell cultures are washed twice with pre-warmed PBS prior to experimentation. After washing, all cell types are incubated for 30 min at 37° C. in 200 μL buffer, buffer plus varying concentration of test article, or with appropriate positive control inhibitor. Based upon preliminary data concentrations from 0.025 to 12.5 μM for OATP1B1 and 0.20 to 100 μM for OATP1B3 (nominal) are tested. At the start of the preincubation, 50 µL of buffer is removed for determination of in-well test article concentrations by LC-MS/MS. Following the pre-incubation period, the buffer is removed. […] Samples are taken from each well from plates to count for radioactivity and protein concentration in each well is determined by bicinchoninic acid method. IC50 values are determined by fitting the data using GraphPad Prism. Nominal concentrations are converted to measured concentrations prior to fitting.

The target in data set [10] is OATP1B3 (Homo sapiens (Human), UniProt Q9NPD5). Put plainly: Inhibition of OATP1B3 (rosuvastatin uptake). The data set is classed as cell-based. The following applies: rosuvastatin 400 nM substrate, 30 min pre-incubation. As for the experimental part:
as §7, §8

Where [11] appears, read: liver at 24 h, read-out: mean liver unbound partition coefficient (Kpuu).
Setting [12] is: plasma, 1 mg/kg, heading: mean clearance.
[13] abbreviates: plasma, read-out: volume of distribution.

Chain of human KHK-A (P50053 other isoform, or with tags, fused parts or gaps): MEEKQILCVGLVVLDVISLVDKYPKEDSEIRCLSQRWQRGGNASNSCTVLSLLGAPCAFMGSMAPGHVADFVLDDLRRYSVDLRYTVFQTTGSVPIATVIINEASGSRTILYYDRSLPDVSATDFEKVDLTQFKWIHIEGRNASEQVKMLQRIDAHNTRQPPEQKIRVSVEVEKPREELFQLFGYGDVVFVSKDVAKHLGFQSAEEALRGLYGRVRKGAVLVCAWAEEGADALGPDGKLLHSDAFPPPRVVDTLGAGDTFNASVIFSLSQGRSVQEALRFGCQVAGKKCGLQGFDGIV
Chain of human KHK-C (P50053 whole entry, canonical isoform): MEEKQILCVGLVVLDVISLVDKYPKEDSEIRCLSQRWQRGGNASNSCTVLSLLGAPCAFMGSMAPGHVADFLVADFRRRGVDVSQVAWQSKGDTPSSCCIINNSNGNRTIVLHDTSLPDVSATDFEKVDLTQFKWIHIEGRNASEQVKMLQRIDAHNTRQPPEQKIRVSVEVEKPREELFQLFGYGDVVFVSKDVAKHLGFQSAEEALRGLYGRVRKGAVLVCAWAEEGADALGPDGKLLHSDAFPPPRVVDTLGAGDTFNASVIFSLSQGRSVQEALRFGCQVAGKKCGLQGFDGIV
Chain of OATP1B1 (Q9Y6L6 whole entry, species assumed): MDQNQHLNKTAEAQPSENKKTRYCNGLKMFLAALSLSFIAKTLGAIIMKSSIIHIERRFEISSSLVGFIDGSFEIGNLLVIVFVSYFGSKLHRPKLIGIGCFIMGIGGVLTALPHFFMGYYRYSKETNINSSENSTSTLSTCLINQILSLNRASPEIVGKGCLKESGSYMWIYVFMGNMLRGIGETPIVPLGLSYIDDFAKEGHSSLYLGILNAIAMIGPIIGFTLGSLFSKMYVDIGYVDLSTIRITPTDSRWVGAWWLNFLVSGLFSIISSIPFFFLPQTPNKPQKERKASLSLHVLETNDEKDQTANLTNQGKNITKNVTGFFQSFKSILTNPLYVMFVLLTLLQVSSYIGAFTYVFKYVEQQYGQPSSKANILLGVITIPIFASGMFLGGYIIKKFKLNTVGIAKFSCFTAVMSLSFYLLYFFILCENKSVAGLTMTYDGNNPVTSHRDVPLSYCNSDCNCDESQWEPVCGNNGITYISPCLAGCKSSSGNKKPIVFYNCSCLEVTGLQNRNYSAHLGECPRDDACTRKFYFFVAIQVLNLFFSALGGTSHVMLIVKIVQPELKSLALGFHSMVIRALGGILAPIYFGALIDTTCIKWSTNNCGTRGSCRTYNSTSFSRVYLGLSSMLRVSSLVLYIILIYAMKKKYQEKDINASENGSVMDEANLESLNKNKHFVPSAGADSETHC
Chain of OATP1B3 (Q9NPD5 whole entry, species assumed): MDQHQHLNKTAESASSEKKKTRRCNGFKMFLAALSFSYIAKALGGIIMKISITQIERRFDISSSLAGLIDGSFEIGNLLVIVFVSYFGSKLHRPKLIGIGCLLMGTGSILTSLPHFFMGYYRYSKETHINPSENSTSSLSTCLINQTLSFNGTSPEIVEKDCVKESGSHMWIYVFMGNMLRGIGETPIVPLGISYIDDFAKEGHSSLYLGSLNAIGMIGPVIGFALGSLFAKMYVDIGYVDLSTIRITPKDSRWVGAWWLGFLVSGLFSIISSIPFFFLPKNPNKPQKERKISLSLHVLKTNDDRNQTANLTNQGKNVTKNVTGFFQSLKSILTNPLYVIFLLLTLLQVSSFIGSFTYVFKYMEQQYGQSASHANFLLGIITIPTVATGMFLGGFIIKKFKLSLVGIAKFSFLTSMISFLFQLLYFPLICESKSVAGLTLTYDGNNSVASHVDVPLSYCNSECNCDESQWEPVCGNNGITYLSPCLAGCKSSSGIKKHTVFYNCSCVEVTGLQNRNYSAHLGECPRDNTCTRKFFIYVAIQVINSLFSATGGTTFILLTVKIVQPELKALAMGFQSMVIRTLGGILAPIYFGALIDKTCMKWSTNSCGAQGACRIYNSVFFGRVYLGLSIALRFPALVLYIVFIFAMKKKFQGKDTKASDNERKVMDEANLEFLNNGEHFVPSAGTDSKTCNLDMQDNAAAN

In the case of `C[C@H]1CCN1c1nc(N2CC[C@H](CC(=O)O)C2)cc(C(F)(F)F)c1C#N` [Example 1, 2-[(3R)-1-[5-cyano-6-[(2S)-2-methylazetidin-1-yl]-4-(trifluoromethyl)-2-pyridyl]pyrrolidin-3-yl]acetic Acid], the IC50 – broadly, the midpoint of a concentration-inhibition curve – in data set [1] was found to be 9 nM; in data set [2], 19 nM; in data set [9] it was 120 nM; in [10], 5500 nM. Moreover, the Kp uu at 24 h in data set [3] (setting [11]) amounted to 67.5; in data set [4] (setting [11]) it was 24.2. Moreover, the clearance – broadly, the rate of elimination divided by the concentration – was found to be 6.91 mL/min/kg in data set [3] (setting [12]); 1.34 mL/min/kg in data set [4] (setting [12]); 2.52 mL/min/kg in data set [5] (dog, plasma, 1 mg/kg, heading: mean clearance, IV 1 mg/kg); 4.69 mL/min/kg in data set [6] (dog, plasma, 1 mg/kg, heading: mean clearance). Further, the half-life (commonly the time needed for the level to fall by half in the phase considered) is 5.43 h in data set [3] (plasma); 9.36 h in [4] (plasma); 7.4 h in [5] (dog, plasma, IV 1 mg/kg); 6.9 h in data set [5] (dog, plasma, PO 3 mg/kg); 2.9 h in [6] (dog, plasma); 15.3 h in [7]. For the same molecule, the Vd in data set [3] (setting [13]) was determined as 2.74 L/kg; in [4] (setting [13]), 0.986 L/kg; in [5] (dog, plasma, IV 1 mg/kg, read-out: volume of distribution), 1.33 L/kg; in data set [6] (dog, plasma, read-out: volume of distribution) it was 0.546 L/kg. The molecule also had a mean half-life in data set [5] (IV 1 mg/kg) of 7.4 h. The bioavailability (as a rule, dose-corrected exposure relative to a reference, in per cent) in [5] (dog, plasma, PO 3 mg/kg) is about 93%. Moreover, the “administered IV dose recovered in bile” value in data set [6] is about 10%. Further, the urine levels entry in [6] is “negligible”. Further, the “inhibition of clearance by ABT” value in data set [8] is recorded as about 12%.
With `C[C@H]1CCN1c1nc(N2CC(CC(=O)O)C2)cc(C(F)(F)F)c1C#N` [Example 2, 2-[1-[5-cyano-6-[(2S)-2-methylazetidin-1-yl]-4-(trifluoromethyl)-2-pyridyl]azetidin-3-yl]acetic Acid], the IC50 in data set [1] amounted to 27 nM; in data set [2], 37 nM.
